In patent publication US20200383969A1, “RIMEGEPANT FOR CGRP RELATED DISORDERS” (Biohaven Pharmaceutical Holding Company Ltd., priority 2018, published 2020):

Legend:
Assay type in all cases: in vivo, human
[1] = Study 301 (BHV3000-301), Phase 3, rimegepant 75 mg tablet vs placebo, acute treatment of migraine
From the text: Clinical Trial—BHV3000-301: Phase 3: Double-Blind, Randomized, Placebo-Controlled, Safety and Efficacy Trial of BHV-3000 (Rimegepant) for the Acute Treatment of Migraine (ClinicalTrials.gov Identifier: NCT03235479). • Study Type: Interventional (Clinical Trial) • Actual Enrollment: 1490 participants • Allocation: Randomized • Intervention Model: Parallel Assignment • Intervention Model Description: Double-blind to Sponsor, Investigator and Subject Randomized Controlled Trial • Masking: Triple (Participant, Care Provider, Investigator) • Masking Description: Double-blind to Sponsor, Investigator and Subject • Primary Purpose: Treatment • Official Title: BHV3000-301: Phase 3: Double-Blind, Randomized, Placebo-Controlled, Safety and Efficacy Trial of BHV-3000 (Rimegepant) for the Acute Treatment of Migraine • 1. Pain freedom of rimegepant (75 mg tablet) compared with placebo in the acute treatment of migraine will be measured using the number of evaluable subjects that report no pain at 2 hours post-dose. [Time Frame: Two hours post dose] • Pain will be measured on a 4 point Likert scale (0=none, 1=mild, 2=moderate, 3=severe) • 2. Freedom from the most bothersome symptom (MBS) of rimegepant (75 mg tablet) compared with placebo will be measured using the number of evaluable subjects that report the absence of their MBS at 2 hours post-dose. [Time Frame: Two hours post dose] • The MBS (nausea, phonophobia or photophobia) will measured using a binary scale (0=absent, 1=present). • 1. […] [Time Frame: 2 hours-24 hours post-dose] • Sustained Pain Freedom as measured by a 4 point numeric rating scale (None, Mild, Moderate, Severe) • 2. The difference between rimegepant (75 mg tablet) compared to placebo by tabulating the absence of photophobia at 2 hours post-dose in the subset of subjects that reported the presence of photophobia at headache baseline. [Time Frame: 2 hours post-dose] • Photophobia • 3. To evaluate rimegepant (75 mg tablet) compared to placebo by tabulating the number of subjects that report the absence of phonophobia at 2 hours post-dose in the subset of subjects that reported the presence of phonophobia at headache baseline. [Time Frame: 2 hours post-dose] • Phonophobia • 4. To measure the difference between rimegepant (75 mg tablet) compared to placebo on Pain Relief, at 2 hours post-dose, for those that report a pain level of moderate or severe at baseline and then report a pain level of none or mild. [Time Frame: 2 hours post-dose] • Pain Relief as measured by a 4 point numeric rating scale (None, Mild, Moderate, Severe) • 5. Freedom from Nausea by tabulating the number of subjects that report the absence of nausea at 2 hours post-dose in the subset of subjects that reported the presence of nausea at headache baseline. [Time Frame: 2 hours post-dose] • Freedom from Nausea • 6. The difference between rimegepant (75 mg tablet) compared to placebo on the probability of requiring rescue medication using the number of subjects that take rescue medication within […] administration of study medication (BHV3000 or placebo). [Time Frame: up to 24 hours post-dose] • Requiring Rescue Medication • 7. […] [Time Frame: 2 hours-24 hours post-dose] • Sustained Pain Freedom • 8. […] [Time Frame: 2 hours-24 hours post-dose] • Sustained Pain Relief as measured by a 4 point numeric rating scale (None, Mild, Moderate, Severe) • 9. […] [Time Frame: 2 hours-48 hours post-dose] • Sustained Pain Relief as measured by a 4 point numeric rating scale (None, Mild, Moderate, Severe) • 10. To measure the difference between rimegepant (75 mg tablet) relative to placebo on the proportion of subjects able to function normally, at 2 hours, using the number of subjects that self-report as “normal” on the functional disability scale. [Time Frame: 2 hours post-dose] • Functional Disability Score • 11. […]

[2] = Pooled adverse event and liver function test data, Studies 301, 302 and 303
[3] = Pooled liver function test profile, Studies 301 and 302; details: pooled Studies 301+302; n = 1089
Procedure: Results from Clinical Trials—The study results from the clinical studies described in Example 2 and Example 3 are set forth in FIG. 1, FIG. 2 and Table 2, Table 3 and Table 4.
(§1) In a double-blind, randomized, placebo-controlled, multicenter study (Study 301, NCT03235479) adults ≥18 years of age with at least a 1-year history of ICHD 3-beta migraine were eligible to participate. Following a 3- to 28-day screening period, subjects were randomized to receive rimegepant 75 mg or matching placebo and instructed to treat a single migraine attack with 1 dose of the blinded study drug (rimegepant or placebo) when headache pain reached moderate or severe intensity. The coprimary endpoints were pain freedom at 2 hours postdose and freedom from the most bothersome symptom (MBS) at 2 hours postdose. Safety assessments included adverse events (AEs), ECGs, vital signs, physical measurements, and routine laboratory tests, including assessment of liver function. Unless stated otherwise, values presented are mean ±SD.
as §1, with “302, NCT03237845)” for “301, NCT03235479)”

[4] = both subjects not dosed before onset
[5] = pooled Studies 301, 302, 303, n = 1,771

For `N[C@@H]1c2cccnc2[C@H](OC(=O)N2CCC(n3c(=O)[nH]c4ncccc43)CC2)CC[C@H]1c1cccc(F)c1F` [Rimegepant, [(5S,6S,9R)-5-amino-6-(2,3-difluorophenyl)-6,7,8,9-tetrahydro-5H-cyclohepta[b]pyridin-9-yl] 4-(2-oxo-3H-imidazo[4,5-b]pyridin-1-yl)piperidine-1-carboxylate], which “SAEs related to the study drug” value [1] is on record?
Its value is “No SAE”.

What about the “AE dizziness, incidence” value ([1]; 75 mg tablet) of the same compound?
The value was 0.7%.

And the “AE dizziness, n/N” value ([1]; 75 mg tablet)?
The value was 4/546.

And the “AE nausea, incidence” value ([1]; 75 mg tablet)?
The value was 0.9%.

And the “AE nausea, n/N” value ([1]; 75 mg tablet)?
Its value is 5/546.

What about the “Bilirubin elevations >2 times ULN” value ([1]; 75 mg tablet) of the same compound?
The value was “No bilirubin elevations”.

And the “Serum ALT or AST > ULN, n/N” value ([1]; 75 mg tablet)?
Its value is 11/546.

What about the “Serum ALT or AST > ULN, subjects” value ([1]; 75 mg tablet) of the same compound?
The value was 2.0%.

And the “Transaminase level >3 times ULN, number of subjects” value ([1]; 75 mg tablet)?
Its value is “One”.

And the “Transaminase level >3 times ULN, subjects” value ([1]; 75 mg tablet)?
The value was 0.2%.

And the “Transaminase level >5 times ULN” value ([1]; 75 mg tablet)?
The value was “no subject”.

What about the “Normal function at 2 hours (functional disability) vs placebo” value ([1]; P<0.0001) of the same compound?
Its value is “greater proportion”.

And the “Serious AEs, number of subjects” value [1, 4]?
The value was 2.

What about the “Serious AEs, subjects” value [1, 4] of the same compound?
Its value is 0.4%.

What about the “Sustained pain relief from 2 through 48 hours postdose vs placebo” value ([1]; single dose, no rescue medication, P=0.0003) of the same compound?
The value was “superiority versus placebo”.

What about the “Sustained pain freedom from 2 through 48 hours postdose vs placebo” value ([1]; single dose, no rescue medication, P=0.013) of the same compound?
The value was “superiority versus placebo”.

And the “Bilirubin elevations > 2 × ULN” value ([2]; across Studies 301, 302 and 303)?
Its value is “no patients experienced elevations”.

And the “ALT or AST >5 × ULN, patients” value ([2]; pooled Studies 301, 302, 303, AST elevation, not drug-related per investigator)?
The value was “(0.06%)^2”.

And the “ALT or AST >3 × ULN, patients” value [2, 5]?
Its value is “(0.1%)”.

And the “ALT or AST >ULN, patients” value [2, 5]?
The value was “(2.7%)”.

What about the “ALT >3 × ULN, subjects” value [3] of the same compound?
Its value is 0.1%.

What about the “ALT >ULN, subjects” value [3] of the same compound?
Its value is 2.0%.

And the “AST >3 × ULN, subjects” value [3]?
The value was 0.1%.

And the “AST >ULN, subjects” value [3]?
The value was 1.1%.
